Article PMC11791213, “Elucidating ligand interactions and small-molecule activation in the pyrrolnitrin biosynthetic enzyme PrnB” (The Journal of Biological Chemistry, 2024)

Legend:
FbPrnB [1] = target: T1, FbPrnB (Flavobacteriales bacterium, UniProt A0AC62AEF3); experiment: X-ray crystal structure of the binary complex; assay type: binding
T1 construct: N-terminal His-tag
T1 sequence (A0AC62AEF3 1-350): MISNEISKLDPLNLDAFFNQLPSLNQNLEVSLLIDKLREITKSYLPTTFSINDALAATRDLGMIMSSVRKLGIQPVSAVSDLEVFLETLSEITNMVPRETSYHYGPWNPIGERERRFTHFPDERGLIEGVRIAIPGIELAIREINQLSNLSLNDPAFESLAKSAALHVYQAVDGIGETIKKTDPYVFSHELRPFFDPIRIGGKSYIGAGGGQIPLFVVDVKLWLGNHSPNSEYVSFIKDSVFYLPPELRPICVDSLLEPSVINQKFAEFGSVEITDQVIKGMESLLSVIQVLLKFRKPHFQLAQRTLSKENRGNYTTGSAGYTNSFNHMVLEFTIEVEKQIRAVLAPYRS

PsPrnB [2] = target: T2, PsPrnB; experiment: UV-visible absorption titration of the ferric enzyme; resonance Raman; assay type: binding, Pseudomonas sp. ADAK18
T2 construct: gene prnB; N-terminal His6-tag (TEV-cleavable)

PsPrnB [3] = target: T2, PsPrnB; experiment: UV-visible absorption titration of the ferric enzyme; EPR; resonance Raman; assay type: binding, Pseudomonas sp. ADAK18
FbPrnB [4] = target: T1, FbPrnB; experiment: X-ray crystal structure of the binary complex; UV-visible; resonance Raman; assay type: binding
FbPrnB [5] = target: T1, FbPrnB; experiment: X-ray crystal structure of the binary complex ([…] and […] occupancy); assay type: binding

SMILES	X-ray crystal structure of the binary complex (FbPrnB [1])	Kd (PsPrnB [2])	Kd (PsPrnB [3])	X-ray crystal structure of the binary complex; UV-visible; resonance Raman (FbPrnB [4])	X-ray crystal structure of the binary complex (75% and 90% occupancy) (FbPrnB [5])
N[C@@H](Cc1c[nH]c2c(Cl)cccc12)C(=O)O [7-Cl-Trp, 7-chloro-L-tryptophan]	binding conformations of 7-Cl-Trp and Trp are nearly identical (Fig. S7A), with the amino group directly coordinating to the iron center	1.9 µM	–	–	–
O=C(O)CCc1c[nH]c2ccccc12 [IDPA, 3-indolepropionic acid]	The structure of the IDPA-bound complex aligns well with our spectroscopic data, confirming that IDPA does not directly interact with the iron	–	9.1 µM	–	–
N[C@@H](Cc1c[nH]c2ccccc12)C(=O)O [Trp, L-tryptophan]	–	–	4.1 µM	binding conformations of 7-Cl-Trp and Trp are nearly identical (Fig. S7A), with the amino group directly coordinating to the iron center	–
NCCc1c[nH]c2ccccc12 [TAM, tryptamine]	–	–	411 µM	–	The amine tail is flexible and adopts two distinct conformations in Chain A (Fig. 5D), with one remaining in coordination
